Results on five compounds are retold here after the NIST ThermoML archive (doi:10.1016/j.fluid.2011.11.020).

SMILES strings stand for the structures. ± gives the expanded uncertainty stated by the source.

As a reminder, the vapor or sublimation pressure is the equilibrium pressure above the liquid or solid.

For this series the following is noted: Liquid, Ebulliometric method (Recirculating still).

Consider `C=C(C)C(C)C` [2,3-dimethyl-1-butene], for which the Normal boiling temperature turned out to be 55.73 ± 0.2 °C.
As for `CC(C)=C(C)C` [2,3-dimethyl-2-butene], the Normal boiling temperature came out at 73.00 ± 0.21 °C.
With `CCC(C)C` [2-methylbutane], the Normal boiling temperature was 28.00 ± 0.2 °C.
`CCCCCCC` [heptane]: the Normal boiling temperature worked out at 98.49 ± 0.2 °C. Moreover, the “vapor or sublimation pressure” value (370.27 K) is 97.43 ± 0.14 kPa. For the same compound, the “vapor or sublimation pressure” value (370.74 K) amounted to 98.52 ± 0.15 kPa. In addition, the “vapor or sublimation pressure” value (370.93 K) came out at 99.39 ± 0.17 kPa. In addition, where the note is “371.13 K”, the “vapor or sublimation pressure” value came out at 99.78 ± 0.16 kPa. Moreover, the “vapor or sublimation pressure” value (371.52 K) is 101.07 ± 0.17 kPa. Further, the “vapor or sublimation pressure” value (372.25 K) was found to be 103.43 ± 0.11 kPa. For the same compound, the “vapor or sublimation pressure” value (372.36 K) came to 103.56 ± 0.17 kPa. Also, the “vapor or sublimation pressure” value (372.56 K) came to 104.41 ± 0.15 kPa. Further, under “372.76 K”, the “vapor or sublimation pressure” value amounted to 104.67 ± 0.17 kPa. The “vapor or sublimation pressure” value (372.97 K) was 105.83 ± 0.19 kPa. Besides, the “vapor or sublimation pressure” value (373.17 K) turned out to be 106.29 ± 0.14 kPa. Under “373.48 K”, the “vapor or sublimation pressure” value is reported as 107.02 ± 0.14 kPa.
As for `c1ccsc1` [thiophene], the Normal boiling temperature is 84.27 ± 0.2 °C.
